Results from patent publication US4804502A, “Vitamin D compounds” (priority 1988, dated 1989).
Like-named read-outs stand apart in the source and are kept apart here.

Legend:
vitamin D deficient rats = details: 3 weeks
[1] = molecular target: T1, 1,25-(OH)2 D3 receptors (rat intestine) (Rattus norvegicus, UniProt P13053); experiment: Competitive Binding to 1,25-(OH)2 D3 Intestine Receptors, rat; details: a/b×100 from amounts displacing 50% of 1,25-(OH)2[3H]D3
T1 construct: receptor prepared from intestine of chick, rat and calf; from tissue; host or cells: rat proximal small-intestine mucosa, cytosol, 35% ammonium sulphate precipitate
T1 sequence (P13053 1-423): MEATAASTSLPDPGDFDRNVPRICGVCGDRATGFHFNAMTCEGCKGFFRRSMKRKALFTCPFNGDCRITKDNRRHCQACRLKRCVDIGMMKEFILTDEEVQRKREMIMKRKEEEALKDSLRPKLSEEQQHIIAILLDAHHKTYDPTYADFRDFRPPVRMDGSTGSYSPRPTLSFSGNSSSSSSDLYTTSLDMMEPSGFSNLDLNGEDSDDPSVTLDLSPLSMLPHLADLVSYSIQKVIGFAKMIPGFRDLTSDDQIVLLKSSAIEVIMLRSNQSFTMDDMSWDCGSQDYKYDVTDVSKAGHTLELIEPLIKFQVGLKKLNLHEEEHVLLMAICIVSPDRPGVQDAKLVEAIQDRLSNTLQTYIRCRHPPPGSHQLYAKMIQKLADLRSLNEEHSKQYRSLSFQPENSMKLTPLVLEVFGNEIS
Procedure: (§1) The ability of vitamin D3 metabolites to compete for 1,25-(OH)[^3 H]D3 receptor binding sites was evaluated with receptor prepared from intestine of chick, rat and calf. The receptor was prepared by removing 10-12% of the small intestine immediately adjacent to the pyloric spincter which was washed immediately with cold buffer containing 500 mM KCl, 50 mM Tris, 1.5 mM EDTA, and 5 mM dithiothreitol, pH 7.4 (KTED buffer). Mucosa was collected and washed three times with 10 volumes of cold KTED buffer. The washed mucosa was homogenized in KTED buffer (20% w/v) using a Polytron Pt20 tissue disruptor. Cytosol was prepared by centrifugation of the homogenized mucosa at 300,000×g for 1 hour. Receptor was precipitated from the cytosol by the addition of ammonium sulphate to achieve 35% saturation. The ammonium sulphate treated cytosol was centrifuged at 20,000×g for 10 minutes. The supernatant was discarded and the pellet lyophilized and stored at […] Prior to binding assay the pellet was resuspended in cold binding assay buffer containing 150 mM KCl, 50 mM NaPO4, 1.5 mM EDTA and 5 mM dithiothreitol.

[2] = test system: bone calcium mobilization; experiment: Bone Calcium Mobilization in Rat (plasma Ca increase); assay type: in vivo; details: intrajugular, 18 h
Procedure: Controls received carrier alone. Bone Ca resorption (BCR) was estimated by measuring the blood Ca increase in the treated rats. Blood was collected in heparinized tubes and centrifuged. The resulting plasma was measured for calcium concentration by atomic absorption spectroscopy. Since rats were fed a diet essentially devoid of Ca, plasma Ca increases reflected mobilization of Ca from bone, not intestinal Ca absorption.

[3] = molecular target: T2, 1,25-(OH)2 D3 receptors (calf intestine) (Bos taurus, UniProt Q28037); experiment: Competitive Binding to 1,25-(OH)2 D3 Intestine Receptors, calf; details: a/b×100 from amounts displacing 50% of 1,25-(OH)2[3H]D3
T2 construct: receptor prepared from intestine of chick, rat and calf; from tissue; host or cells: calf proximal small-intestine mucosa, cytosol, 35% ammonium sulphate precipitate
T2 sequence (Q28037 1-426): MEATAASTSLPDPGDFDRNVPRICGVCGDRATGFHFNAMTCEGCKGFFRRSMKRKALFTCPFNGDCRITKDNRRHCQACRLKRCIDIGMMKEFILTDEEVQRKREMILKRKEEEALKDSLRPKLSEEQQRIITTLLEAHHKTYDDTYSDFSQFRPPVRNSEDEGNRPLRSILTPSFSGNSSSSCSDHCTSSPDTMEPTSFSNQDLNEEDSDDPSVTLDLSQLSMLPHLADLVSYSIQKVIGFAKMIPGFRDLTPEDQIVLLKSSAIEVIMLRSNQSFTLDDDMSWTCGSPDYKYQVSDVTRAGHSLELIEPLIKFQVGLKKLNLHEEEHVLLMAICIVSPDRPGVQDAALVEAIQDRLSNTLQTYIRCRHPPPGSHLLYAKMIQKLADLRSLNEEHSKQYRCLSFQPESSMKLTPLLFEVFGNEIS
Procedure: as §1, with “The receptor was prepared by removing 10-12% of the small intestine immediately adjacent to the pyloric spincter which was washed immediately with cold buffer containing 500 mM KCl, 50 mM Tris, 1.5 mM EDTA, and 5 mM dithiothreitol, pH 7.4 (KTED buffer).” left out, “Receptor was precipitated from the cytosol by the addition of ammonium sulphate to achieve 35% saturation.” left out

Competitive Binding to 1,25-(OH)2 D3 Receptors - % of 1,25-(OH)2 D3 Effect, rat intestine [1] [%]	Competitive Binding to 1,25-(OH)2 D3 Receptors - % of 1,25-(OH)2 D3 Effect, calf intestine [3] [%]	SMILES	Bone Mass (vitamin D deficient rats; daily dose 18 ng) [mm^3 /cm^3]	Serum Ca^2+ (vitamin D deficient rats; daily dose 18 ng) [mg/dL]	Serum PO4^2- (vitamin D deficient rats; daily dose 18 ng) [mg/dL]	Bone Mass (vitamin D deficient rats; daily dose 72 ng)	Serum Ca^2+ (vitamin D deficient rats; daily dose 72 ng) [mg/dL]	Serum PO4^2- (vitamin D deficient rats; daily dose 72 ng) [mg/dL]	% of 1,25-(OH)2 D3 Effect in Rat, bone calcium mobilization ([2]; 12.5 ng/rat) [%]	% of 1,25-(OH)2 D3 Effect in Rat, bone calcium mobilization ([2]; 15.5 ng/rat) [%]
142	62	C=C1/C(=C\C=C2/CCC[C@]3(C)[C@@H]([C@H](C)CC#CC(O)(C(F)(F)F)C(F)(F)F)CC[C@@H]23)C[C@@H](O)C[C@@H]1O [Compound B]	385 ± 77	15.63 ± 0.36	7.66 ± 0.17	746 + 48 mm^3 /cm^3	15.23 ± 0.22	6.34 ± 0.26	0	
39	47	C=C1/C(=C\C=C2/CCC[C@]3(C)[C@@H]([C@H](C)CC#CC(C)(C)O)CC[C@@H]23)C[C@@H](O)C[C@@H]1O [Compound A, 1α,25-dihydroxy-23-yne-cholecalciferol]								15
